Activity calls are given as the source filed them. The calls are words filed in the database; no cut-off is given here.
Legend:
[1] = target: Oxysterols receptor LXR-beta (Homo sapiens, UniProt P55055); assay: Displacement of [3H]T0901317 from human LXRbeta ligand binding domain
[2] = target: T1, Mineralocorticoid receptor (Homo sapiens) (UniProt P08235); assay: Binding affinity to mineralocorticoid receptor
T1 sequence (whole entry): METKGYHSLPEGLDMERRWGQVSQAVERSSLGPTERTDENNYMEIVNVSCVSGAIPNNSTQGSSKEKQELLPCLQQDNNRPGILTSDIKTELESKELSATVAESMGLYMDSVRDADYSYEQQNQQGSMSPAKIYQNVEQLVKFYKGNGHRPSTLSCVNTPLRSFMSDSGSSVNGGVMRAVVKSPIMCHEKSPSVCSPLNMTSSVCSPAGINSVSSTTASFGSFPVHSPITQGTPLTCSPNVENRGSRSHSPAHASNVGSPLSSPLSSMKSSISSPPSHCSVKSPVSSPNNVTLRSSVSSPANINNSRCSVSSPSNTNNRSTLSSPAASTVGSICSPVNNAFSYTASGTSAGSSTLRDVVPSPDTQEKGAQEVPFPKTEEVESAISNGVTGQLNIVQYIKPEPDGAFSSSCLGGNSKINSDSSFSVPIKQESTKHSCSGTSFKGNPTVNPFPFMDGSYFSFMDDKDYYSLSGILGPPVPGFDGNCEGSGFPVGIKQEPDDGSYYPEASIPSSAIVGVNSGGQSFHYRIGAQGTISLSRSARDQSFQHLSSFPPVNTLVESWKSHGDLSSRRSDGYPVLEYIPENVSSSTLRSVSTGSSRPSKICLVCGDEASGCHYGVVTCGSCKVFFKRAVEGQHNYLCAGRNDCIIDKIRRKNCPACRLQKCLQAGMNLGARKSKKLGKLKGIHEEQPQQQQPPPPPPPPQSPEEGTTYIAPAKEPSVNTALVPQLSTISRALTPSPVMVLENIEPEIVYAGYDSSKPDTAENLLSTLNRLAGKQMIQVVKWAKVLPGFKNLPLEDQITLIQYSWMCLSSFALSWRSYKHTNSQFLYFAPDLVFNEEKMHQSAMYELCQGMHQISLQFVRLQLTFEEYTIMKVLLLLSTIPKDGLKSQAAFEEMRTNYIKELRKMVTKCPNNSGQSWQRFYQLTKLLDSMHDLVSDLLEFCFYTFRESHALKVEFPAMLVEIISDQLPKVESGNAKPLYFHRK

Oxysterols receptor LXR-beta, sequence (P55055 whole entry, the tested form may be a part): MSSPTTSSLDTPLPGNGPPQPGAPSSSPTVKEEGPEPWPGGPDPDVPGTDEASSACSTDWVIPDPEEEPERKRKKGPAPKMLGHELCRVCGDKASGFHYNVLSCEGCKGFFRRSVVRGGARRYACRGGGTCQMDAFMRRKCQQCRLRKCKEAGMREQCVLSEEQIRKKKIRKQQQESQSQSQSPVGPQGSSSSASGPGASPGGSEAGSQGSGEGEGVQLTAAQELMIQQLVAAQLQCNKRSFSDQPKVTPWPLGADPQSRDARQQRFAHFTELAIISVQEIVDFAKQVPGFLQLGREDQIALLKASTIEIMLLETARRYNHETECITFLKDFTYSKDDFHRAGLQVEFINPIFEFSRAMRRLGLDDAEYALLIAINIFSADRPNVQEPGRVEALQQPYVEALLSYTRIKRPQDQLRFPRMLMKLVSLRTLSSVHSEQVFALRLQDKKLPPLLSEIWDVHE

- IC50 [1]: 53 nM
- Activity [2]: inactive
Structure (SMILES): Cc1nc2c(C(F)(F)F)cccc2nc1-c1ccc(-c2cccc(S(C)(=O)=O)c2)cc1
